{
  "source": "patent US20090148535A1",
  "about": "“METHOD FOR TREATING CANCER USING INTERFERENCE RNA” (MINERVA BIOTECHNOLOGIES CORPORATION, priority 2007, published 2009)",
  "assay_type_in_all_cases": "cell-based",
  "key": {"BTRes1 cells [1]": {"tested_on": "BTRes1 cells", "assay": "Cell death of BTRes1 cells with chemotherapeutic agents with or without Anti-MUC1* Fab (Trypan Blue exclusion)", "conditions": "for resistance of BTRes1 and restored killing effect with Anti-MUC1* Fab: 10 ug/ml Anti-MUC1* Fab", "description": "(§1) BT474, BTRes1 and BTRes2 cells were plated at 10,000 cells/well in 96 well plates, 4 wells/condition. The following day, Cyclophosphamide, Taxol, or Doxorubicin were added in varying concentrations, alone, or in the presence of 10 ug/ml Anti-MUC1* Fab or 10 ug/ml Control Fab. Cells were left untreated, or treated with either Fab alone as controls. Two days later, cells were resuspended in 50 ul trypsin, and counted in the presence of trypan blue. Percent cell death was calculated as percent trypan blue uptake."}, "BT474 cells": {"tested_on": "BT474 cells", "assay": "Cell death of BT474 cells with chemotherapeutic agents (Trypan Blue exclusion)", "conditions": "10 nM Taxol, two days post-treatment", "description": "as §1"}, "MUC1*": {"tested_on": "MUC1*", "assay": "Western blot of MUC1* after siRNA transfection", "conditions": "Western Blot after transient siRNA transfection", "description": "(§2) BT474 cells were transfected in triplicate with control siRNA (Santa Cruz Biotechnologies; sc-37007), and BTRes1 cells were transfected in triplicate with control or MUC1-specific siRNA (Santa Cruz Biotechnologies sc-35985). One microliter of 10 uM siRNA was added to 100 ul of OptiMEM medium (Invitrogen 22600134). Six microliters of HiPerfect reagent (Qiagen 301704) were then added to each tube. After vortexing, tubes were incubated at room temperature for 20 minutes. Meanwhile, cells were trypsinized, pelleted and resuspended in fresh RPMI without HERCEPTIN. 5×10^5 cells in 2.3 ml RPMI were combined with the OptiMEM with siRNA/HiPerfect complexes and added to a well of a 6 well plate. Two days later, cells were re-transfected by the same method, and plated in 96 well plates, at 10,000 cells/well, five wells/condition. Leftover cells were plated in six well plates. […] The following day, cells plated in 6 well plates were harvested and pelleted for Western analysis to evaluate siRNA efficacy. Three days later, cells were counted, and Percent Normalized Growth was calculated."}, "BTRes1 cells [2]": {"tested_on": "BTRes1 cells", "assay": "Growth of siRNA-transfected BTRes1 cells in the presence of HERCEPTIN", "conditions": "HERCEPTIN 0-1 ug/ml, cell counts three days post-treatment", "description": "Percent Normalized Growth was then calculated: Percent Normalized Growth=[(Day 3 cell counts with Antibody Added )−(Zero-day cell counts)]/[(Day 3 Cell counts without antibody added)−(Zero-day cell counts)]×100%\nas §2"}},
  "data": [
    {"molecule": "O=P1(N(CCCl)CCCl)NCCCO1", "note": "(stereo not shown) [Cyclophospharnide, Cyclophosphamide]", "values": [
      {"measurement": "resistance of BTRes1 and restored killing effect with Anti-MUC1* Fab", "setting": "BTRes1 cells [1]; 10 uM drug", "result": "also observed"}
    ]},
    {"molecule": "COc1cccc2c1C(=O)c1c(O)c3c(c(O)c1C2=O)C[C@@](O)(C(=O)CO)C[C@@H]3O[C@H]1C[C@H](N)[C@H](O)[C@H](C)O1", "note": "[Doxorubicin]", "values": [
      {"measurement": "resistance of BTRes1 and restored killing effect with Anti-MUC1* Fab", "setting": "BTRes1 cells [1]; 1 uM drug", "result": "also observed"}
    ]},
    {"molecule": "CC(=O)O[C@H]1C(=O)[C@@]2(C)[C@H]([C@H](OC(=O)c3ccccc3)[C@]3(O)C[C@H](OC(=O)[C@H](O)[C@@H](NC(=O)c4ccccc4)c4ccccc4)C(C)=C1C3(C)C)[C@]1(OC(C)=O)CO[C@@H]1C[C@@H]2O", "note": "[Taxol]", "values": [
      {"measurement": "cell killing", "setting": "BTRes1 cells [1]; BTRes1, 10 nM Taxol alone, two days, compared to untreated cells", "result": "essentially unaffected"},
      {"measurement": "killing effect with Anti-MUC1* Fab", "setting": "BTRes1 cells [1]; BTRes1, 10 nM Taxol and 10 ug/ml Anti-MUC1* Fab", "result": "restored"},
      {"measurement": "cell killing", "setting": "BT474 cells", "result": "effectively killed"}
    ]},
    {"molecule": "MUC1 siRNA: MUC1-specific siRNA (Santa Cruz Biotechnologies sc-35985) (GCAGCCTCTCGATATAACCATCTCGAGGGGTTATATCGAGAGGCTGC; expressed or natural sequence)", "values": [
      {"measurement": "MUC1* level", "setting": "MUC1*", "result": "Down regulation"},
      {"measurement": "growth in the presence of HERCEPTIN of cells transfected with the siRNA", "setting": "BTRes1 cells [2]", "result": "reduced"}
    ]}
  ]
}
